Source: PMC4306130 (Scientific Reports, 2015)

Target: c-Met (Homo sapiens, UniProt P08581)
Assay: radiometric protein kinase assay with recombinant human c-Met
Type: biochemical

Chain of c-Met (P08581 25-307): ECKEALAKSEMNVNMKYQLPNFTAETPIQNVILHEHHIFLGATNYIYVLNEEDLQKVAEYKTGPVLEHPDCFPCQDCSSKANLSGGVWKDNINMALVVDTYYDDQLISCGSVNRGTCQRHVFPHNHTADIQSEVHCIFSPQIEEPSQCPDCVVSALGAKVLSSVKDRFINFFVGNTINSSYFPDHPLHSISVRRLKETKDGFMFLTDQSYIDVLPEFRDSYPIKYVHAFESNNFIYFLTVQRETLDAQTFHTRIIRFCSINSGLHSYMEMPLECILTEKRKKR
Chain of c-Met (P08581 308-1390): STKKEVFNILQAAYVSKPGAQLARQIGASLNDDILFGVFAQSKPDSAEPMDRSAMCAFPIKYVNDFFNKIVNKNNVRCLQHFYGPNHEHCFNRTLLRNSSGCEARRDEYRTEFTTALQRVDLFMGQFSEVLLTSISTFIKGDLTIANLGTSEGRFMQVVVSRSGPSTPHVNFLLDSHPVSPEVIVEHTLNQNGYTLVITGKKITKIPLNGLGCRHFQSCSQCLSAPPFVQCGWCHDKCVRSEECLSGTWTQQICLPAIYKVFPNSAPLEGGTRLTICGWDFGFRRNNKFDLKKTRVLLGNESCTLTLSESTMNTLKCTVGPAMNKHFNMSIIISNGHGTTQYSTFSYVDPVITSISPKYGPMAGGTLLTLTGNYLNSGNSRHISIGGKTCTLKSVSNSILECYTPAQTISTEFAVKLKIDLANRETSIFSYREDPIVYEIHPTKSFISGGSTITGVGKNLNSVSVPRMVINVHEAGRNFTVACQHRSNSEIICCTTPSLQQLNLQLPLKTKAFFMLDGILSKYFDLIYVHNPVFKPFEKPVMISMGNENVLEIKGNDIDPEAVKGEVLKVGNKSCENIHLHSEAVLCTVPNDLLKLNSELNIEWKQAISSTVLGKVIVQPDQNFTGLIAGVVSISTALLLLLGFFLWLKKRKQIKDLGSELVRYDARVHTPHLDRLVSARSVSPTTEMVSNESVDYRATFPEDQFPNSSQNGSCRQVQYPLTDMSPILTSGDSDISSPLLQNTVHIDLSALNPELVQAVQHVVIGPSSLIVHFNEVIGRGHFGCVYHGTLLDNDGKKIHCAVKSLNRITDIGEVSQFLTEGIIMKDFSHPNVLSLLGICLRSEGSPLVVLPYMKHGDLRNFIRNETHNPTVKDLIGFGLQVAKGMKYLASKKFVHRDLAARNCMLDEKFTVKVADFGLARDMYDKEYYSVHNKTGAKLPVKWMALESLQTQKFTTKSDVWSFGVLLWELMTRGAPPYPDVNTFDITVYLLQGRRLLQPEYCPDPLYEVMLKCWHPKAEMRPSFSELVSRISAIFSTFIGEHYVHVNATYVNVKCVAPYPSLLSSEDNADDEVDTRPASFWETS

- IC50: 5.1 ± 0.1 µM
Compound: COc1c(C=O)c(O)cc2c1C(=O)c1ccccc1C2=O [damnacanthal, 3-hydroxy-1-methoxy-anthraquinone-2-aldehyde]
